Measured values as given in patent US11732018B2, “Cancer antigen helper peptide” (priority 2009, dated 2023).
Ends that are not written are not given here.

What was measured:
[1] = test system: spleen cells of immunized mice; assay: WT1 peptide-specific cell lines, cell proliferation ability (3H incorporation); format: cell-based, mouse; conditions: for proliferation reaction with MHC class I antibody or MHC class II antibody added (3H incorporation): 4th stimulation with peptide-pulsed stimulator, antibody added to the culture solution, FIG. 2A-2C; for proliferation reaction in response to stimulator pulsed with the peptide (3H incorporation): spleen cells of mice immunized with the same peptide, 4th stimulation with irradiated peptide-pulsed spleen cells of non-immunized mice, FIG. 1A-1C
Method: First, the above WT1 peptides were emulsified with a Freund's incomplete adjuvant (Montanide ISA 51), and mice were intradermally inoculated with each WT1 peptide in an amount corresponding to 100 μg/mouse. The immunization was carried out 3 times at intervals of one week, the spleen was removed after 1 week of the final immunization, and spleen cells were prepared. The spleen cells were stimulated 3 times at intervals of 10 days using spleen cells of non-immunized mice, which were pulsed with the same WT1 peptide as that used for immunization of each mouse and irradiated, as a stimulator. Then, the 4th stimulation was carried out using spleen cells of non-immunized mice, which were pulsed with each peptide (WT13 5, WT18 6 or WT12 9 4 peptide) as shown in Table 7 and irradiated, as a stimulator, and proliferation reaction in response to each stimulator was measured by a ^3H incorporation experiment. An OVA (ovalbumin) peptide irrelevant to WT1 peptides was used as a control peptide. As a result, mouse spleen cells immunized with a WT13 5 peptide, a WT18 6 peptide or a WT12 9 4 peptide each responded to the stimulator pulsed with a WT13 5 peptide, a WT18 6 peptide or a WT12 9 4 peptide, and proliferated (FIG. 1A to 1C).
As described above, spleen cells were stimulated in vitro 3 times at intervals of 10 days using spleen cells of non-immunized mice, which were pulsed with each WT1 peptide and irradiated. When the 4th stimulation was then carried out using spleen cells of non-immunized mice, which were pulsed with each peptide described above and irradiated, as a stimulator, and proliferation reaction was measured, an MHC class I antibody (D^b antibody) or an MHC class II antibody (Ab antibody) was added to the culture solution and ^3H incorporation was measured.

[2] = test system: C1498 cells; assay: Proliferation reaction of WT1 peptide-specific cell lines to C1498 stimulator cells (3H incorporation); format: cell-based, mouse; conditions: irradiated C1498 stimulators; FIG. 3
Method: As described above, spleen cells were stimulated in vitro 3 times at intervals of 10 days using spleen cells of non-immunized mice, which were pulsed with each WT1 peptide and irradiated. Then, the proliferation reaction was measured by ^3H incorporation using irradiated C1498 cells not expressing any WT1 protein, C1498 cells pulsed with each of the above WT1 peptides, or C1498 cells expressing a WT1 protein by introduction of a WT1 gene, as a stimulator.

[3] = test system: RMAS cells pulsed with a WT1126 peptide (MHC class I); assay: WT1-specific immune response in spleen cells of tumor-implanted mice (cytotoxic activity, WT1 tetramer FACS); format: in vivo, mouse
Method: Next, mice were dissected on the 29th day after starting the above experiment, the spleen was excised, and a WT1-specific immune response was analyzed using spleen cells. Briefly, the spleen was excised when mice of the WT13 5 helper peptide (MHC class II)-immunized group and the control group were dissected, and spleen cells were prepared. The spleen cells were stimulated once with a WT11 2 6 peptide (MHC class I), and on the 6th day after the stimulation, cytotoxic activity of the spleen cells was measured using RMAS cells pulsed with a WT11 2 6 peptide (MHC class I) as a target cell. As a control, the cytotoxic activity of the spleen cells was measured using RMAS cells as a target cell. […] The WT1-specific cytotoxic T cells were not induced in one mouse. Also, it was clear that the induction of the WT1-specific cytotoxic T cells was lower as compared with the WT13 5 helper peptide (MHC class II)-immunized group (FIGS. 9 and 10).
Next, specific cytolysis was analyzed in mice of the above WT135 helper peptide (MHC class II)-immunized group and control group. […] Also, the above-prepared spleen cells and a fluorescence-labeled WT1 tetramer (H-2 Db WT1 Tetramer-[…]-PE) were incubated at 4° C. for 20 minutes, washed, then stained with fluorescence-labeled CD3 and CD8 antibodies, again washed, and analyzed by FACS. […]

Sequence	proliferation reaction with MHC class I antibody or MHC class II antibody added (3H incorporation) [1]	proliferation reaction in response to stimulator pulsed with the peptide (3H incorporation) [1]	proliferation reaction in response to C1498 cells pulsed with peptide or expressing a WT1 protein (3H incorporation) [2]	WT1-specific cytotoxic T cells (specific cytolysis; CD3-, CD8- and WT1 tetramer-positive cells) versus control group ([3]; spleen cells of tumor-implanted mice, p<0.05, FIG. 11)	induction of WT1-specific cytotoxic T cells (cytotoxic activity of spleen cells) ([3]; spleen excised on 29th day, stimulated once with WT1126 peptide, measured on 6th day, FIG. 9)
FRGIQDVRRVSGVAPTLVR (listed as Mus musculus) [WT1294]	suppressed by the addition of an MHC class II antibody	proliferated	produced by an intracellular process of an endogenous WT1 protein and displayed on an MHC class II molecule	–	–
EQCLSAFTLHFSGQFTG (listed as Mus musculus) [WT186]	suppressed by the addition of an MHC class II antibody	proliferated	produced by an intracellular process of an endogenous WT1 protein and displayed on an MHC class II molecule	–	–
WAPVLDFAPPGASAYGSL [WT135]	–	–	–	significantly high	induced in all 4 mice
